# Measured values taken from patent US20230159527A1, “COMPOUNDS AS BCL-2 INHIBITORS” (Fochon Pharmaceuticals, Ltd., priority 2020, published 2023).
# Test system: DoHH2 cells
# Test: Cell proliferation assay, DoHH2 cells (MTS, 120 h)
# Format: cell-based
# Details: Homo sapiens, DOHH-2
# Description: MTS testing kit was purchased from Promega (Madison, Wis., USA). The RPMI-1640, Fetal bovine serum and Penicillin-Streptomycin were purchased from BI (Biological Industries, Beit Haemek, Israel). Dimethyl sulfoxide (DMSO) was purchased from Sigma (St. Louis, Mo., USA). DoHH2 (DSMZ catalog #: ACC47) cells were cultured in RPMI-1640 supplemented with Penicillin-Streptomycin and 10% FBS.
# To investigate whether a compound is able to inhibit the activity of BCL-2 in cells, a mechanism-based assay using DoHH2 lines was developed. In this assay, the inhibition of BCL-2 was reflected by the inhibition of cell proliferation of DoHH2 cells. Cells were plated into 96-well plates at the optimized cell density of 5000 cells/well. Plates were incubated at 37° C., with 5% CO2 for 4h. Compounds were serially diluted and added to the plates with the final concentrations of 10000, 3333.3, 1111.1, 370.4, 123.5, 41.2, 13.7, 4.6 and 1.5 nM. Plates were incubated at 37° C., with 5% CO2 for 120 h. 20 μl MTS was added into each well and the plates were incubated at 37° C., with 5% CO2 for exactly 2 h. The absorbance was measured by a microplate reader at 490 nm. IC50 was calculated using GraphPad Prism 5.0 software.
row,SMILES,IC50
1,"CC(C)c1ccccc1C1COCCN1C1CC2(CCN(c3ccc(C(=O)NS(=O)(=O)c4cc([N+](=O)[O-])c5c(n4)OC[C@H](CC4CCOCC4)N5)c(Oc4cnc5[nH]ccc5c4)c3)CC2)C1 (single isomer, unassigned) [Example B-51, 2-((1H-pyrrolo[2,3-b]pyridin-5-yl)oxy)-4-(2-((R or S)-3-(2-isopropylphenyl)morpholino)-7-azaspiro[3.5]nonan-7-yl)-N-(((S)-8-nitro-2-((tetrahydro-2H-pyran-4-yl)methyl)-2,3-dihydro-1H-pyrido[2,3-b][1,4]oxazin-6-yl)sulfonyl)benzamide]",≤ 1 nM
2,"CC1(O)CCC(CNc2ncc(S(=O)(=O)NC(=O)c3ccc(N4CCC5(CC4)CC(N4CCC[C@H]4c4ccccc4C4CC4)C5)cc3Oc3cnc4[nH]ccc4c3)cc2[N+](=O)[O-])CC1 (stereo partly drawn) [Example A-1b, (S)-2-((1H-pyrrolo[2,3-b]pyridin-5-yl)oxy)-4-(2-(2-(2-cyclopropylphenyl)pyrrolidin-1-yl)-7-azaspiro[3.5]nonan-7-yl)-N-((6-(((4-hydroxy-4-methylcyclohexyl)methyl)amino)-5-nitropyridin-3-yl)sulfonyl)benzamide]",≤ 1 nM

# Test system: Toledo cells
# Test: Cell proliferation assay, Toledo cells (MTS, 72 h)
# Format: cell-based
# Details: Homo sapiens, Toledo cells, MTS, read-out: Toledo IC50
# In short: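 Toledo cells (30000/well, RPMI-1640 with 10% FBS) were preincubated for 4 h. They were then exposed to nine compound concentrations from 10000 to 1.5 nM for 72 h at 37 °C, 5% CO2. MTS was added for 2 h and absorbance read at 490 nm to give IC50.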
row,SMILES,IC50
1,"CC(C)c1ccccc1[C@@H]1CCC[C@@H]1N1CC2(CCN(c3ccc(C(=O)NS(=O)(=O)c4ccc(NC[C@H]5CC[C@](C)(O)CC5)c([N+](=O)[O-])c4)c(Oc4cc5cc[nH]c5nc4OC[C@@H]4COCCO4)c3)CC2)C1 (single isomer, unassigned) [Example D-236, 2-((6-(((S)-1,4-dioxan-2-yl)methoxy)-1H-pyrrolo[2,3-b]pyridin-5-yl)oxy)-N-((4-(((1r,4r)-4-hydroxy-4-methylcyclohexyl)methyl)amino)-3-nitrophenyl)sulfonyl)-4-(2-((1S,2S or 1R,2R)-2-(2-isopropylphenyl)cyclopentyl)-2,7-diazaspiro[3.5]nonan-7-yl)benzamide]",1 nM
2,"CC(C)c1ccccc1[C@@H]1CCCN1C1CC2(CCN(c3ccc(C(=O)NS(=O)(=O)c4cc5c(c([N+](=O)[O-])c4)N[C@@H]([C@H]4CC[C@](C)(O)CC4)CO5)c(Oc4cc5cc[nH]c5nc4OC4CC4)c3)CC2)C1 (single isomer, unassigned) [Example D-67, 2-((6-cyclopropoxy-1H-pyrrolo[2,3-b]pyridin-5-yl)oxy)-N-(((S)-3-((1r,4S)-4-hydroxy-4-methylcyclohexyl)-5-nitro-3,4-dihydro-2H-benzo [b][1,4]oxazin-7-yl)sulfonyl)-4-(2-((R or S)-2-(2-isopropylphenyl)pyrrolidin-1-yl)-7-azaspiro[3.5]nonan-7-yl)benzamide]",1 nM
3,"CC(C)c1ccccc1[C@@H]1CS(=O)(=O)CCN1C1CC2(CCN(c3ccc(C(=O)NS(=O)(=O)c4cc5c(c([N+](=O)[O-])c4)N[C@@H]([C@H]4CC[C@](C)(O)CC4)CO5)c(Oc4cnc5[nH]cc(F)c5c4)c3)CC2)C1 (single isomer, unassigned) [Example D-79, 2-((3-fluoro-1H-pyrrolo[2,3-b]pyridin-5-yl)oxy)-N-(((S)-3-((1r,4S)-4-hydroxy-4-methylcyclohexyl)-5-nitro-3,4-dihydro-2H-benzo[b] [1,4]oxazin-7-yl)sulfonyl)-4-(2-((R or S)-3-(2-isopropylphenyl)-1,1-dioxidothiomorpholino)-7-azaspiro [3.5]nonan-7-yl)benzamide]",1 nM
4,"CC(C)c1ccccc1[C@@H]1CCCN1C1CC2(CCN(c3ccc(C(=O)NS(=O)(=O)c4cc5c(c([N+](=O)[O-])c4)N[C@@H]([C@H]4CC[C@](C)(O)CC4)CO5)c(Oc4cc5cc[nH]c5nc4OC[C@@H]4CCCN4)c3)CC2)C1 (single isomer, unassigned) [Example D-218, N-(((S)-3-((1r,4S)-4-hydroxy-4-methylcyclohexyl)-5-nitro-3,4-dihydro-2H-benzo[b][1,4]oxazin-7-yl)sulfonyl)-4-(2-((R or S)-2-(2-isopropylphenyl)pyrrolidin-1-yl)-7-azaspiro[3.5]nonan-7-yl)-2-((6-(((S)-pyrrolidin-2-yl)methoxy)-1H-pyrrolo[2,3-b]pyridin-5-yl)oxy)benzamide]",1 nM
5,"CC(C)c1ccccc1[C@@H]1CCCN1C1CC2(CCN(c3ccc(C(=O)NS(=O)(=O)c4cc5c(c([N+](=O)[O-])c4)N[C@@H]([C@H]4CC[C@](C)(O)CC4)CO5)c(Oc4cc5c(F)c[nH]c5nc4Cl)c3)CC2)C1 (single isomer, unassigned) [Example D-84, 2-((6-chloro-3-fluoro-1H-pyrrolo [2,3-b]pyridin-5-yl)oxy)-N-(((S)-3-((1r,4S)-4-hydroxy-4-methylcyclohexyl)-5-nitro-3,4-dihydro-2H-benzo[b][1,4]oxazin-7-yl)sulfonyl)-4-(2-((R or S)-2-(2-isopropylphenyl)pyrrolidin-1-yl)-7-azaspiro[3.5]nonan-7-yl)benzamide]",1 nM
6,"COc1nc2[nH]ccc2cc1Oc1cc(N2CCC3(CC2)CN([C@H]2CCC[C@H]2c2ccccc2C(C)C)C3)ccc1C(=O)NS(=O)(=O)c1cnc(NC[C@H]2CC[C@](C)(O)CC2)c([N+](=O)[O-])c1 (single isomer, unassigned) [Example A-160, N-((6-(((1r,4r)-4-hydroxy-4-methyl-cyclohexyl)methyl)amino)-5-nitro-pyridin-3-yl)sulfonyl)-4-(2-((1S,2S or 1R,2R)-2-(2-isopropylphenyl)cyclo-pentyl)-2,7-diazaspiro[3.5]nonan-7-yl)-2-((6-methoxy-1H-pyrrolo[2,3-b]pyridin-5-yl)oxy)benzamide]",1 nM
7,"CC(C)c1ccccc1[C@@H]1CCC[C@@H]1N1CC2(CCN(c3ccc(C(=O)NS(=O)(=O)c4cc5c(c([N+](=O)[O-])c4)N[C@@H]([C@H]4CC[C@](C)(O)CC4)CO5)c(Oc4cnc5[nH]cc(F)c5c4)c3)CC2)C1=O (single isomer, unassigned) [Example D-248, 2-((3-fluoro-1H-pyrrolo[2,3-b]pyridin-5-yl)oxy)-N-(((S)-3-((1r,4S)-4-hydroxy-4-methylcyclohexyl)-5-nitro-3,4-dihydro-2H-benzo[b] [1,4]oxazin-7-yl)sulfonyl)-4-(2-((1S,2S or 1R,2R)-2-(2-isopropylphenyl)cyclopentyl)-1-oxo-2,7-diazaspiro [3.5]nonan-7-yl)benzamide]",1 nM
8,"CC(C)c1ccccc1[C@@H]1CCCN1C1CC2(CCN(c3ccc(C(=O)NS(=O)(=O)c4cc5c(c([N+](=O)[O-])c4)N[C@@H]([C@H]4CC[C@](C)(O)CC4)CO5)c(Oc4cc5cc[nH]c5nc4OCC(F)(F)F)c3)CC2)C1 (single isomer, unassigned) [Example D-58, N-(((S)-3-((1r,4S)-4-hydroxy-4-methylcyclohexyl)-5-nitro-3,4-dihydro-2H-benzo[b][1,4]oxazin-7-yl)sulfonyl)-4-(2-((R or S)-2-(2-isopropylphenyl)pyrrolidin-1-yl)-7-azaspiro[3.5]nonan-7-yl)-2-((6-(2,2,2-trifluoroethoxy)-1H-pyrrolo[2,3-b]pyridin-5-yl)oxy) benzamide]",1 nM
9,"CC(C)c1ccccc1[C@@H]1CCC[C@@H]1N1CC2(CCN(c3ccc(C(=O)NS(=O)(=O)c4ccc(NC[C@H]5CC[C@](C)(O)CC5)c([N+](=O)[O-])c4)c(Oc4cc5cc[nH]c5nc4OC4COC4)c3)CC2)C1 (single isomer, unassigned) [Example D-115, N-((4-((((1r,4r)-4-hydroxy-4-methylcyclohexyl)methyl)amino)-3-nitrophenyl)sulfonyl)-4-(2-((1S,2S or 1R,2R)-2-(2-isopropylphenyl)cyclopentyl)-2,7-diazaspiro[3.5]nonan-7-yl)-2-((6-(oxetan-3-yloxy)-1H-pyrrolo[2,3-b]pyridin-5-yl)oxy) benzamide]",1 nM

# Same assay, conditions: Homo sapiens, Toledo, read-out: Toledo IC50 (nM)
row,SMILES,IC50
1,"CC(C)c1ccccc1[C@@H]1CCCN1C1CC2(CCN(c3ccc(C(=O)NS(=O)(=O)c4ccc(NC[C@H]5CC[C@](C)(O)CC5)c([N+](=O)[O-])n4)c(Oc4cnc5[nH]ccc5c4)c3)CC2)C1 (single isomer, unassigned) [Example C-2, 2-((1H-pyrrolo[2,3-b]pyridin-5-yl)oxy)-N-((5-((((1r,4r)-4-hydroxy-4-methylcyclohexyl)methyl)amino)-6-nitropyridin-2-yl)sulfonyl)-4-(2-((R or S)-2-(2-isopropylphenyl)pyrrolidin-1-yl)-7-azaspiro[3.5]nonan-7-yl)benzamide]",1 nM
2,"CC(C)c1ccccc1[C@@H]1COCCN1C1CC2(CCN(c3ccc(C(=O)NS(=O)(=O)c4cc5c(c([N+](=O)[O-])c4)N[C@@H]([C@H]4CC[C@](C)(O)CC4)CO5)c(Oc4cnc5[nH]cc(Cl)c5c4)c3)CC2)C1 (single isomer, unassigned) [Example D-2, 2-((3-chloro-1H-pyrrolo[2,3-b]pyridin-5-yl)oxy)-N-(((S)-3-((1r,4S)-4-hydroxy-4-methylcyclohexyl)-5-nitro-3,4-dihydro-2H-benzo[b] [1,4]oxazin-7-yl)sulfonyl)-4-(2-((R or S)-3-(2-isopropylphenyl)morpholino)-7-azaspiro[3.5]nonan-7-yl) benzamide]",1 nM
